Two substances from patent US20260115261A1, “COLLAGEN PEPTIDE-BASED MEDICAMENT COMPOSITIONS AND USES THEREOF” (SUSTAIN HOLDINGS, LLC, priority 2023, published 2026) can be followed below.

In one experiment the test system is optic nerve. Briefly: Optic nerve crush, axon repair after intravitreal injection. Type of experiment: in vivo, mice. The settings on record: for greater abundance of CTB-containing axon segments vs vehicle: measurements above the median, p≤0.02. The procedure:
To further examine the effects of CMPs on nerve regeneration, optic nerve crush experiments were performed. This approach is a useful model of traumatic optic neuropathy and for assessing potential neuroreparative and neuroregenerative strategies (Cameron, E G et al., Bio-protocol 10(6) (Mar. 20, 2020), doi: 10.21769/BioProtoc.3559). Axon degeneration in this injury model also involves degradation of matrix collagen associated with robust tissue remodeling (Bernardo-Colon, A et al., Cell Death Dis. 9:1097 (2018); Sharma, T P et al., Mol. Neurodegener. 9:14 (2014)). Mice were subjected to […] nerve crush, and then three days later received an intravitreal injection of vehicle (DMSO) or of fluorescently tagged CMP 13A (SEQ ID NO:6). Optic nerves were longitudinally sectioned in the site of the injury two weeks following nerve crush, and sections were examined for axon length (via cholera toxin B labeling) and CMP localization (via fluorescence microscopy). Sections were also labeled with glial fibrillary acidic protein (GFAP) to localize astrocyte glia in the sections. […] Repaired axons were largely coincident with localized patches of CMP (FIG. 6C, arrows). Scale=200 μm (FIG. 6A) or 100 μm (FIGS. 6B,C).
Next, we quantitated the number of CTB+ green axon segments at discrete distances distal from the crush site (towards the brain). […] Even so, in both cohorts, there were a number of samples with few, if any, axons distal from the crush site, leading to substantial variability (FIG. 7B, inset). To better estimate the magnitude of the effect due to CMP 13A compared to vehicle, we pooled the measurements above the median at each location into three bins: 50-100 μm, 200-300 μm, and 400 μm and further from the injury site. […] Intact axon segments in these nerves were also longer than those in nerves from vehicle-treated eyes. The mean length of intact axon segments in nerves from CMP 13A-treated eyes was 51% greater than that in the vehicle cohort: 122.6±5.5 vs. 81.1±8.3 μm (p<0.001; FIG. 7D). Similarly, the mean for the longest 25 segments in the CMP 13A nerves was nearly 80% greater than that for vehicle nerves: 228.1±12.9 vs. 127.8±10.5 μm (p<0.001; FIG. 7E).

Experiment [1] has as its system cerebrovasculature of ApoE−/− STZ mice. Briefly: Diabetic atherosclerosis mouse model (ApoE−/− + STZ + high fat diet), cerebrovascular immunohistochemistry. It counts as in vivo. The procedure: Animals. All animal studies were conducted in accordance with the NIH guide for the care and use of laboratory animals and approved by the Vanderbilt University Institutional Animal Care and Use Committee. For the studies described, 12-week-old ApoE^−/− (#002052) or C57/B6J wildtype (WT) (#000664) mice were obtained from Jackson Laboratories. Mice were housed in a facility managed by Vanderbilt University Division of Animal Care with ad libitum access to water and standard diet followed by ad libitum access to 45% high fat diet (Research Diet Inc.; Catalog #D12451) starting at the correct study time point. Mice were subjected to 12-hr. light/dark cycle.
Animal Model of Diabetic Atherosclerosis. A diabetic atherosclerosis mouse model was implemented by combining ApoE^−/− mice with a streptozocin STZ-induced diabetic phenotype. Prior to STZ injection and diet change, baseline fasting blood glucose measurements and weights were obtained. To induce hyperglycemia ApoE^−/− mice were injected with STZ (50 mg/Kg in 10 mM sodium citrate, pH4.5; Millipore Sigma Catalog #S0130) intraperitoneally for five consecutive days. For the duration of STZ injections, mice received drinking water supplemented with 10% sucrose. One week after the final STZ injection, blood glucose levels were measured to confirm hyperglycemia. Mice were fasted for 6 hours prior to glucose measurement and then anesthetized with 2.5% isoflurane. Tail snips were taken, and one drop of blood was placed on test strips to obtain readings. Tails were then stemmed of bleeding using a silver nitrate applicator (Avoca reference number #7482) before returning mice to their cages. Any mice not registering as hyperglycemic were removed from the study. Remaining mice were then switched to a 45% high fat diet (HFD) to accelerate atherosclerotic plaque formation. After 1 week on HFD, mice were randomly assigned to receive intravenous CMP (n=5) or PBS (1×PBS, n=4) once weekly for 12 weeks. Upon conclusion of the study, mice were anesthetized via intraperitoneal pentobarbital injection followed by transcardial perfusion of 1×PBS and 4% paraformaldehyde (PFA). One day prior to sacrifice, mice were injected via tail vein injection with Sulfo-NHS-Biotin in sterile 1×PBS (Thermo-Fisher; Catalog #21335).
Intravenous Administration of CMPs. The CMP used in the present Example was a 21-aa single-strand peptide consisting of a 7-repeat sequence of a tripeptide of 4-fluoroproline (Flp), hydroxyproline (Hyp), and glycine (Gly), and abbreviated as (cis-Flp-Hyp-Gly)7 (SEQ ID NO:6). This CMP was manufactured using standard solid-phase peptide synthesis chemistry in limited quantity by Bachem, AG (Germany). CMP was dissolved in sterile 1×PBS at a concentration of […] and sterilized using a 0.22 µm filter (Millipore Sigma, Burlington, MA, USA). Mice were weighed and restrained in an apparatus designed for tail vein injection. Tails were heated to dilate the veins prior to weekly injection, and […] of CMP in sterile 1×PBS (vehicle) was injected to accommodate a final concentration in each animal of 0.1 mg/Kg. An additional batch of this CMP was produced with attachment of the TideFluor™ 2 moiety (AAT Bioquest, Sunnyvale, CA, United States) to the peptide as a fluorescent reporter. This labeled CMP was injected intravenously at 100 μM concentration (100 μL) to identify binding in WT vs. ApoE^−/−+STZ mice. CMP was injected 48 hours prior to sacrifice and again immediately before transcardial perfusion of 4% PFA. One day prior to euthanasia, tail veins were injected with Sulfo-NHS biotin to track vascular leakage. Sulfo-NHS Biotin (Thermo-Fisher; Catalog #21335) was dissolved in sterile 1×PBS (20 mg/mL) and sterilized through a […] filter. Mice were then restrained in tail vein apparatus and injected intravenously with 100 μL Sulfo-NHS biotin. […]

The subject of experiment [2] is dorsal root ganglion (DRG) neurons. Briefly: DRG explant neurite outgrowth on MMP-1-digested collagen treated with CMP. It counts as cell-based, rat. The procedure:
Plates were then rinsed with culture medium, and DRG neuronal cells were plated uniformly on plates having one of three surface coating conditions: (1) intact collagen; (2) MMP1-digested collagen; and (3) MMP1-digested collagen+CMP. Plates were then incubated at 37° C. for 24 hours or 48 hours, and then examined for morphology and neurite outgrowth by inverted brightfield microscopy.
To measure neurite outgrowth accurately, explants were visualized live using multifocal high-magnification phase contrast microscopy to optimize identification and measurement of the longest neurite (FIG. 2A, white arrow) and the size of the DRG explant growth field.

As to “Flp-Hyp-Gly-Flp-Hyp-Gly-Flp-Hyp-Gly-Flp-Hyp-Gly-Flp-Hyp-Gly-Flp-Hyp-Gly-Flp-Hyp-Gly [CMP 13A]”, the “greater abundance of CTB-containing axon segments vs vehicle” value is listed as 29% in the experiment on optic nerve (50-100 μm from injury site); 39% with optic nerve (200-300 μm from injury site); 96% in the experiment on optic nerve (400 μm and further from injury site). The “number of CTB+ axon segments at discrete distances distal from the crush site” value with optic nerve (fluorescently tagged CMP 13A intravitreal 3 days after crush, two weeks after crush, vs vehicle (DMSO)) is “more axon segments than nerves from vehicle eyes at each location examined”. In addition, in the experiment on optic nerve (two weeks after crush), the “distance of CTB+ segments distal from the injury, some samples” value is listed as not above 1 mm. Further, the “mean for the longest 25 segments” value in the experiment with optic nerve (two weeks after crush) was found to be 228.1±12.9 μm. Besides, in the experiment with optic nerve (two weeks after crush), the “mean length of intact axon segments” value was determined as 122.6±5.5 μm. In the experiment on optic nerve (two weeks after crush, p<0.001), the “mean for the longest 25 segments, greater than vehicle nerves” value was approximately 80%. In addition, in the experiment with optic nerve (two weeks after crush, p<0.001), the “mean length of intact axon segments, greater than vehicle cohort” value turned out to be 51%. Besides, the “vascular leakage of biotin” value in experiment [1] (3 months post-treatment, Sulfo-NHS biotin intravenous one day before euthanasia) is “not observed”. For the same substance, in experiment [1] (CA1 (p<0.0001) and DG (p=0.0004)), the “distance from individual astrocytes to the nearest blood vessel” value was “closer to blood vessels than in PBS-treated mice”. Also, in experiment [1] (CA1 (p=0.07) and DG (p=0.06)), the “GFAP density vs PBS” value is recorded as “not significantly different”. The “biotin intensity (secondary measure of vessel density) vs PBS” value in experiment [1] (CA1, DG and cortex) is given as “increased biotin labeling”. For the same substance, the “CD31 intensity vs PBS” value in experiment [1] (CA1, cortex and DG (p=0.02, p<0.0001, p=0.01), 0.1 mg/Kg intravenous once weekly for 12 weeks) is on record as “increased”. Moreover, the “increase of collagen IV intensity relative to PBS-treated controls” value came out at 170% in experiment [1] (CA1, p=0.01); 52% in experiment [1] (DG, p=0.04); 175% in experiment [1] (cortex, p=0.01). For the same substance, the “number of astrocyte soma vs PBS” value in experiment [1] (CA1, p=0.02) is listed as “decreased”; in experiment [1] (DG, p=0.31) it was “not significantly different”. For the same substance, the “area of CD31-positive vessels vs PBS” value in experiment [1] (CA1 and cortex (p=0.001 and p<0.0001), (cis-Flp-Hyp-Gly)7 0.1 mg/Kg intravenous once weekly for 12 weeks) is “significant increase”. Also, the “CD31 intensity as a ratio of biotin intensity vs PBS” value in experiment [1] (DG only (p=0.04)) is “significantly increased”. In experiment [1] (DG, 0.1 mg/Kg intravenous once weekly for 12 weeks), the “vessel (CD31) area vs control” value is given as “no significant difference”. Moreover, the “vascular structure by biotin labeling” value in experiment [1] (all brain regions, vs shorter, more fragmented vessels in PBS-treated mice) is listed as “longer, more complex vessels with increased branching”.

As to “Pro-Flp-Gly-Pro-Flp-Gly-Pro-Flp-Gly-Pro-Flp-Gly-Pro-Flp-Gly-Pro-Flp-Gly-Pro-Flp-Gly [CMP 09C]”, in experiment [2] (48 hours, MMP1-digested collagen + CMP 100 μM, normalized to intact collagen, p<0.036), the “longest neurite outgrowth, greater than intact collagen” value turned out to be 21%. Besides, the “neurite outgrowth of DRG explants (phase contrast micrographs)” value in experiment [2] (explants on damaged (MMP-1-digested) collagen treated with CMP 100 μM, 24 and 48 hours) was “improved outgrowth”.
